Experimental data published in patent US20220274947A1, “NOVEL HETEROARYL-TRIAZOLE COMPOUNDS AS PESTICIDES” (Bayer Aktiengesellschaft, priority 2019, published 2022).

How the values were obtained:
Type in all cases: in vivo
Rhipicephalus microplus = assay: Rhipicephalus (Boophilus) microplus dip test (BOOPMI Dip); conditions: 168 h, application rate 100 ppm, engorged adult female ticks, after 7 days, read-out: activity (efficacy: 100% means all eggs are infertile)
Protocol: Rhipicephalus (Boophilus) Microplus—Dip Test (BOOPMI Dip)
Test Animal: cattle ticks (Rhipicephalus microplus) strain parkhurst, SP-resistant Solvent: dimethyl sulfoxide
To produce a suitable preparation of active compound, 10 mg of active compound are dissolved in 0.5 mL solvent, and the concentrate is diluted with water to the desired concentration.
This compound solution is pipetted into tubes. 8-10 engorged, adult, female cattle ticks (Rhipicephalus microplus) are placed in perforated tubes. These tubes are immersed in the aqueous compound solution until the ticks are completely moistened. After the liquid has drained off, the ticks are transferred to a filter paper in a plastic tray and stored in a climate chamber.
After 7 days egg deposition of fertile eggs is monitored. Eggs where fertility is not visible are stored in a climate chamber till hatching after about 42 days. An efficacy of 100% means all eggs are infertile; 0% means all eggs are fertile.

Rhipicephalus sanguineus = Rhipicephalus sanguineus in-vitro contact test, adult brown dog ticks (RHIPSA Cont); conditions: 48 h, after 48 hours, read-out: activity (efficacy: 100% means all ticks are dead or moribund); for pest or weed control at 5 µg/cm2, 500 g/ha: application rate 5 μg/cm^2 (=500 g/ha); for pest or weed control at 1 µg/cm2, 100 g/ha: application rate 1 μg/cm^2 (=100 g/ha)
Procedure, shortened: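 Compound in acetone was coated onto the inner walls of glass tubes and dried by rotation before adult brown dog ticks were exposed. Efficacy was scored at 48 h. Ticks unable to climb away from a 45–50 °C heating plate within 5 min counted as dead or moribund.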

[1] = system: Musca domestica strain WHO—N; assay: Musca domestica test (MUSCDO surface treatment & contact assay); conditions: exposure 30 minutes, 24 hours after contact, read-out: efficacy (mortality); for mortality at 4 mg/m2: surface concentration 4 mg/m^2, glazed tile; for mortality at 20 mg/m2: surface concentration 20 mg/m^2, glazed tile
Procedure, shortened: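 Compound dissolved in acetone (2 mg/ml) with 2000 ppm rapeseed oil methyl ester and pipetted onto glazed tile; after acetone evaporation, adult flies exposed to dried surface for 30 minutes. Mortality (%) scored 24 hours after contact.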

Nezara viridula = Nezara viridula spray test; conditions: in Hordeum vulgare, 96 h, barley plants, larvae, after 4 days; for mortality at 500 g/ha: application rate 500 g/ha; for mortality at 100 g/ha: application rate 100 g/ha
Procedure, shortened: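 Mortality was read at day 4 (0% = no kill, 100% = total kill) after spraying larva-infested barley plants. Test solutions were made from an acetone/DMF concentrate diluted with water holding 1000 ppm alkylarylpolyglycol ether emulsifier.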

Myzus persicae = Myzus persicae oral test; conditions: 120 h, read-out: activity (mortality)
Procedure, shortened: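 Percent mortality was recorded at day 5, where 0% means no aphids killed. Compound prepared from an acetone concentrate diluted in water and combined with IPL41 medium containing sugar was offered to mixed-stage green peach aphids, which sucked it through a parafilm seal.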

[2] = system: Anopheles funestus strain FUMOZ-R; assay: Anopheles funestus test (ANPHFU surface treatment & contact assay); conditions: exposure 30 minutes, 24 hours after contact, read-out: efficacy (mortality); for mortality at 4 mg/m2: surface concentration 4 mg/m^2, glazed tile; for mortality at 20 mg/m2: surface concentration 20 mg/m^2, glazed tile
Procedure, shortened: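 Adult FUMOZ-R mosquitoes were exposed 30 min to glazed tiles treated with compound in acetone plus 2000 ppm rapeseed oil methyl ester, after solvent evaporation. Percent mortality was scored 24 h after contact.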

[3] = system: Culex quinquefasciatus strain P00; assay: Culex quinquefasciatus test (CULXFA surface treatment & contact assay); conditions: exposure 30 minutes, 24 hours after contact, read-out: efficacy (mortality); for mortality at 20 mg/m2: surface concentration 20 mg/m^2, glazed tile; for mortality at 4 mg/m2: surface concentration 4 mg/m^2, glazed tile
Procedure, shortened: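 Test compound in acetone (2 mg/ml) with 2000 ppm RME pipetted onto glazed tile; after acetone evaporation, adult strain P00 mosquitoes exposed to dried surface for 30 min. Mortality (%) scored 24 h after contact; 100% = all dead, 0% = none dead.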

[4] = system: Aedes aegypti strain MONHEIM; assay: Aedes aegypti test (AEDSAE surface treatment & contact assay); conditions: exposure 30 minutes, 24 hours after contact, read-out: efficacy (mortality); for mortality at 4 mg/m2: surface concentration 4 mg/m^2, glazed tile; for mortality at 20 mg/m2: surface concentration 20 mg/m^2, glazed tile
Procedure, shortened: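 Compound dissolved in acetone (2 mg/ml) with 2000 ppm rapeseed oil methyl ester, pipetted onto glazed tile and dried. Adult mosquitoes exposed on the surface for 30 min; percent mortality scored 24 h after contact.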

Row | SMILES | pest or weed control at 100 ppm (Rhipicephalus microplus) | pest or weed control at 5 µg/cm2, 500 g/ha (Rhipicephalus sanguineus) | mortality at 4 mg/m2 [1] | mortality at 500 g/ha (Nezara viridula) | mortality at 4 ppm (Myzus persicae) | mortality at 4 mg/m2 [2] | mortality at 20 mg/m2 [2] | mortality at 20 mg/m2 [3] | pest or weed control at 1 µg/cm2, 100 g/ha (Rhipicephalus sanguineus) | mortality at 4 mg/m2 [4] | mortality at 20 mg/m2 [4] | mortality at 20 mg/m2 [1] | mortality at 100 g/ha (Nezara viridula) | mortality at 4 mg/m2 [3] | mortality at 0.8 ppm (Myzus persicae)
1 | CCc1nc([C@H](C)NC(=O)c2cc(Cl)cc(Cl)c2)n(-c2ccc(C#N)cn2)n1 [I-2] | 100% | 100% | 80 to 100% | 90% | – | – | – | – | – | – | – | – | – | – | –
2 | C[C@H](NC(=O)c1cc(Cl)nc(C(F)(F)F)c1)c1ncnn1-c1ccc(C#N)cn1 [II-5] | 100% | 100% | 80 to 100% | 100% | 100% | 80 to 100% | 80 to 100% | 80 to 100% | 100% | 80 to 100% | 80 to 100% | 80 to 100% | 90% | – | –
3 | C[C@H](NC(=O)c1cc(C(F)(F)F)cc(C(F)(F)F)c1)c1ncnn1-c1ccc(C(=O)N(C)C2CC2)cn1 [II-38, 6-(5-{(1S)-1-[3,5-bis(trifluoromethyl)benzamido]ethyl}-1H-1,2,4-triazol-1-yl)-N-cyclopropyl-N-methylnicotinamide] | 80% | 100% | – | 100% | 100% | – | 80 to 100% | 80 to 100% | 100% | 80 to 100% | 80 to 100% | – | 100% | – | –
4 | C[C@H](NC(=O)c1cc(Cl)cc(C(F)(F)F)c1)c1ncnn1-c1cc(-n2cncn2)ccn1 [II-43] | 100% | 100% | – | – | – | – | 80 to 100% | – | 100% | 80 to 100% | 80 to 100% | 80 to 100% | – | 80 to 100% | –
5 | Cc1nc([C@H](C)NC(=O)c2cc(Br)cc(OC(F)(F)F)c2)n(-c2ccc(C#N)cn2)n1 [II-47] | 80% | 100% | 80 to 100% | 100% | 100% | – | 80 to 100% | – | 100% | 80 to 100% | 80 to 100% | 80 to 100% | 100% | – | 100%
6 | Cc1nc([C@H](C)NC(=O)c2cc(Cl)cc(Br)c2)n(-c2ccc(C#N)cn2)n1 [II-50] | 100% | 100% | 80 to 100% | – | 100% | 80 to 100% | – | – | 100% | 80 to 100% | 80 to 100% | 80 to 100% | – | 80 to 100% | 100%
7 | Cc1nc([C@H](C)NC(=O)c2cc(C#N)cc(C(F)(F)F)c2)n(-c2ccc(C#N)cn2)n1 [II-53] | 100% | 100% | 80 to 100% | – | 100% | – | – | – | 80% | 80 to 100% | 80 to 100% | 80 to 100% | 90% | – | 100%
8 | Cc1nc([C@H](C)NC(=O)c2cncc(C(F)(F)F)c2)n(-c2ccc(C#N)cn2)n1 [II-63] | 100% | 100% | – | – | 100% | – | – | 80 to 100% | 100% | 80 to 100% | 80 to 100% | 80 to 100% | 100% | – | –
9 | CCN(C)C(=O)c1ccc(-n2nc(C)nc2[C@H](C)NC(=O)c2cc(C(F)(F)F)cc(C(F)(F)F)c2)nc1 [II-97] | 100% | 100% | 80 to 100% | – | 100% | – | – | – | 100% | – | 80 to 100% | 80 to 100% | 100% | – | –
